Test results as given in ChEMBL document CHEMBL5532735, “Novel Furopyridine and Furopyrimidine Compounds as PI4K Inhibitors for Treating Malaria and Viral Infection” (ACS Med Chem Lett, 2024).
pIC50: −log10 of the molar value.

Tested on: Plasmodium falciparum
Assay: Antimalarial activity against Plasmodium falciparum assessed as inhibition of parasite growth by [3H]hypoxanthine incorporation assay
Type: functional, organism-based

| SMILES | pIC50 |
| --- | --- |
| Cn1cc(-c2cc3nccc(-c4cccc(S(C)(=O)=O)c4)c3o2)ccc1=O | > 8.00 |
| CC(C)(O)c1cc(-c2ccnc3cc(-c4ccc(S(C)(=O)=O)cc4)oc23)ccn1 | > 8.00 |
| CS(=O)(=O)c1ccc(-c2cc3nccc(-c4cccc(C5(O)CCC5)c4)c3o2)cc1 | > 8.00 |
| CC(C)(O)c1cccc(-c2ncnc3cc(-c4ccc(S(C)(=O)=O)cc4)oc23)c1F | > 8.00 |
| CC(C)(O)c1cccc(-c2ncnc3cc(-c4ccc(S(C)(=N)=O)cc4)oc23)c1F (stereo unspecified) | > 8.00 |
| CS(=O)(=O)c1ccc(-c2cc3nccc(-c4cccc(C5(O)CCC(F)(F)CC5)c4)c3o2)cn1 | > 8.00 |
